Patent US20240166649A1, “DIHYDROPYRIMIDINE COMPOUND, PREPARATION METHOD THEREFOR AND APPLICATION THEREOF” (Shanghai Visonpharma Co., Ltd., priority 2021, published 2024)
Read-outs that look alike come from different tables or passages of the source.

Tests used:
[1] = test system: HBV (hepatitis B virus) in HepG2.2.15 cells; assay: Cell-based anti-viral activity assay (HBV DNA in supernatant by quantitative PCR); settings: 120 h, anti-HBV activity, HepG2.2.15 cells, 5 days, read-out: EC50 (HepG2.2.15)
In short: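 HepG2.2.15 cells (stably carrying HBV genome) treated with 3.16-fold compound dilutions, final 1% DMSO, for 5 days at 37 °C. Supernatant HBV DNA quantified by qPCR against a standard curve; % inhibition normalised to DMSO and high-concentration reference compound wells.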

[2] = Pharmacokinetics (PK) evaluation in mice; assay type: in vivo; settings: ICR mice, po 10 mg/kg; for Kp at 0.5 h / Kp at 1 h / Kp at 3 h / Kp at 5 h / concentration at 0.5 h / concentration at 1 h / concentration at 3 h / concentration at 5 h / AUC(0-t) / Cmax: mouse; for Kp at 0.5 h / Kp at 1 h / Kp at 3 h / Kp at 5 h: liver/plasma, read-out: Liver/Plasma ratio
Description: Pharmacokinetics (PK) Evaluation in Mice Test compounds were administered to ICR mice by gavage (po). The po dose was 10 mg/kg, and the vehicle formulation was 10% DMSO+40% PEG400+50% Saline (0.9% saline). Animals were fasted overnight (10-14 h) before administration and fed 4 h after administration. Blood was collected into heparin sodium anticoagulated tubes at multiple time points (0.5, 1, 3, 5 hours) after administration. Mice were euthanized with CO2 and livers were collected at multiple time points (0.5, 1, 3,5 h). The drug concentrations in plasma and liver were analyzed by LC-MS/MS method. Phenix WinNonlin was used to calculate the pharmacokinetic parameters.

[3] = Cytotoxicity assay (CellTiter Glo); assay type: cell-based; settings: human; HepG2.2.15 cells, five days post treatment
Description: The Invention Determined Cytotoxicity of the Compounds Against HepG2.2.15 Cells (Table 2)
HepG2.2.15 cells were seeded into 96-well plates (8000 cells per well) and cell viability was measured by the addition of 60 μL of CellTiter Glo reagent (Promega) five days post treatment with the compounds. Cell plates with CellTiter Glo added were shaken on a plate shaker for 20 min and then the chemiluminescence signal was stabilized at room temperature for 10 min. Chemiluminescence values were read using a microplate reader (Bio-TeK SYNERGY NEO2).
The concentration corresponding to 50% cytotoxicity (CC50) was fitted by graphpad prism software. The cytotoxicity was calculated by the formula: % Cytotoxicity=100−(chemiluminescence value of sample Well −average chemiluminescence value of blank medium column)/(average chemiluminescence value of DMSO column −average chemiluminescence value of blank medium column)*100

[4] = liver, read-out: Liver drug conc.
[5] = plasma, read-out: Plasm drug conc.

Row | Compound | EC50 [1] [nM] | Liver AUC(0→t) [2] [ng·h/g] | Liver Cmax [2] [ng/g] | Kp at 0.5 h [2] | Kp at 1 h [2] | Kp at 3 h [2] | Kp at 5 h [2] | concentration at 0.5 h [2, 4] [ng/g] | concentration at 1 h [2, 4] [ng/g] | concentration at 3 h [2, 4] [ng/g] | concentration at 5 h [2, 4] [ng/g] | AUC(0-t) ([2]; plasma) [ng·h/mL] | Cmax ([2]; plasma) [ng/mL] | concentration at 0.5 h [2, 5] [ng/mL] | concentration at 1 h [2, 5] [ng/mL] | concentration at 3 h [2, 5] [ng/mL] | concentration at 5 h [2, 5] [ng/mL] | CC50 at 5 days [3] [nM]
1 | CCOC(=O)C1=C(CN2CCN3C(=O)N(C45CCC(CC(=O)O)(C4)C5)C[C@@H]3C2)NC(c2nccs2)=N[C@H]1c1cccc(F)c1C [Compound 58, 2-(4-((S)-7-(((S)-5-(Ethoxycarbonyl)-6-(3-Fluoro-2-Methylphenyl)-2-(Thiazol-2-Yl)-3,6-Dihydropyrimidin-4-Yl)Methyl)-3-Oxohexahydroimidazo[1,5-a]Pyrazin-2(3H)-Yl)Bicyclo[2.1.1]Hexan-1-Yl)Acetic Acid] | 6 | 175730 | 62519 | 31 | 40 | 57 | 44 | 62500 | 61300 | 26800 | 14200 | 4210 | 2030 | 2030 | 1540 | 470 | 324 | > 50000
2 | CCOC(=O)C1=C(CN2CCN3C(=O)N(C45CC(CC(=O)O)(C4)C5)C[C@@H]3C2)NC(c2nccs2)=N[C@H]1c1cccc(F)c1C [Compound 22, 2-(3-((S)-7-(((S)-5-(Ethoxycarbonyl)-6-(3-Fluoro-2-Methylphenyl)-2-(Thiazol-2-Yl)-3,6-Dihydropyrimidin-4-Yl)Methyl)-3-Oxohexahydroimidazo[1,5-a]Pyrazin-2(3H)-Yl)Bicyclo[1.1.1]Pentan-1-Yl)Acetic Acid] | 7 | 231116 | 102141 | 120 | 115 | 137 | 297 | 102000 | 94800 | 24700 | 12200 | 1860 | 849 | 849 | 826 | 180 | 41 | > 50000
